Patent publication US10912786B2, “Silyl monomers capable of multimerizing in an aqueous solution, and methods of using same” (Cornell University, priority 2011, dated 2021)
pIC50: −log10 of the molar value.

Tests used:
[1] = biological target: T1, recombinant human tryptase, beta, from lung (Homo sapiens, UniProt P20231); experiment: Evaluation of inhibition of tryptase activity (Boc-Gln-Ala-Arg-AMC fluorescence); format: biochemical; conditions: exemplary silyl monomers; 1 nM tryptase; read-out: IC50 range
T1 construct: purchased Promega or Enzo Life Sciences G5631 or BML-SE418
T1 sequence (P20231 31-275): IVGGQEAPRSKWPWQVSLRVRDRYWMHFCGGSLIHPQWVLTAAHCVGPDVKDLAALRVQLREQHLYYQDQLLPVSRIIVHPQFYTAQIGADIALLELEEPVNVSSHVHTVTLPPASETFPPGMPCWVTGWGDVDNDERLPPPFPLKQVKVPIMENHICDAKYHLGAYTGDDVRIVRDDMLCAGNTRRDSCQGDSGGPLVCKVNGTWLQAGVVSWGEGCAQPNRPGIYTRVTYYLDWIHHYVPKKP
Protocol: Stock solutions of recombinant human tryptase, beta, from lung (Promega: catalog number G5631, or Enzo Life Sciences: catalog number BML-SE418) were made at 30 μM, in solution with 50 μM heparin sulfate and 500 mM NaCl. Multimer tryptase inhibitor stock solutions were made at 50 mM in DMSO. Drug plates were made at 5× the final concentration in assay buffer (50 mM HEPES, 150 mM NaCl, 100 μM EDTA, pH 7.4, 0.02% Tween-20). A final concentration of 1 nM tryptase was used. When required, drugs were diluted in assay buffer immediately before use in 10-fold serial dilutions. […] The release of fluorescent AMC was immediately measured every 60 seconds over 30-60 minutes at an excitation wavelength of 367 nm, monitoring emission at 468 nm on a Spectramax M5 (Molecular Devices) microplate reader. The Softmax Pro (Molecular Devices) and Graphpad prism software were used to determine Vmax, and concentration-response curve IC50s, respectively. As indicated below, IC50 ranges are provided for various exemplary monomers.

[2] = Hydrolysis of disiloxane to silanol followed by NMR; format: physicochemical; conditions: expected from the effect of alkyl group size on silyl ether hydrolysis
Source text: Without wishing to be bound by any theory, the estimated half-life for hydrolysis of the disiloxane depicted here:
[drawing 18] is 15 days based at pH5 in 90% DMSO/10% water at room temperature based upon NMR experiments. […] Thus in certain aqueous situations, the hydrolysis of the dimeric disiloxane to monomeric silanol may be essentially irreversible on the timescale relevant for the biological functions they are modulating.

Row | pIC50 [1] | SMILES | half-life of hydrolysis relative to the depicted disiloxane [2]
1 | 4.19 to 5.00 | C[Si](C)(O)c1cccc(-c2cccc(C(=O)N3CCC(c4cccc(CN)c4)CC3)c2)c1 [T35 Silyl] | –
2 | 6.00 to 10.00 | C[Si](C)(O)c1ccc2cccc(C(=O)N3CCC(c4cccc(CN)c4)CC3)c2c1 [Target T11SILYL] | –
3 | 6.00 to 10.00 | C[Si](C)(O[Si](C)(C)c1cc2c(C(=O)N3CCC(c4cccc(CN)c4)CC3)cccc2s1)c1cc2c(C(=O)N3CCC(c4cccc(CN)c4)CC3)cccc2s1 [Target T49] | –
4 | 6.00 to 10.00 | C[Si](C)(O)c1cccc2ccc(C(=O)N3CCC4(CC3)COc3ccc(CN)cc34)cc12 [Target T52SPIRO] | –
5 | 6.00 to 10.00 | C[Si](C)(O)c1cccc2ccc(C(=O)N3CCC(c4cccc(CN)c4)CC3)cc12 [Target T52] | –
6 | 6.00 to 10.00 | C[Si](C)(O)c1cccc2cc(C(=O)N3CCC(c4cc(CN)ccc4F)CC3)ccc12 [Target T120F] | –
7 | 5.00 to 6.00 | C[Si](C)(O)Cc1cccc(C(=O)N2CCC(c3cccc(CN)c3)CC2)c1 [Target T122] | –
8 | 6.00 to 10.00 | C[Si](C)(O)c1cccc(C(=O)N2CCC3(CC2)COc2ccc(CN)cc23)c1 [Target T129SPIRO] | –
9 | 6.00 to 10.00 | CSc1cc(C(=O)N2CCC(c3cccc(CN)c3)CC2)cc([Si](C)(C)O)c1 [Target T129Smethyl] | –
10 | 6.00 to 10.00 | C[Si](C)(O)c1cccc(C(=O)N2CCC(c3cccc(CN)c3)CC2)c1 [Target T129] | –
11 | 6.00 to 10.00 | C[Si](C)(O)c1ccc(C(=O)N2CCC(c3cccc(CN)c3)CC2)cc1 [Target T130] | –
12 | 6.00 to 10.00 | C[Si](C)(O)COc1ccc(C(=O)N2CCC(c3cccc(CN)c3)CC2)cc1 [Target T137, (4-(3-(aminomethyl)phenyl)piperidin-1-yl)(4-((hydroxydimethylsilyl)methoxy)-phenyl)methanone] | –
13 | 6.00 to 10.00 | C[Si](C)(O)COc1cccc(C(=O)N2CCC(c3cccc(CN)c3)CC2)c1 [Target T138, (4-(3-(aminomethyl)phenyl)-piperidin-1-yl)(3-((hydroxydimethylsilyl)-methoxy)phenyl)methanone] | –
14 | 6.00 to 10.00 | C[Si](C)(O)c1coc2ccc(C(=O)N3CCC(c4cccc(CN)c4)CC3)cc12 [Target T148] | –
15 | 5.00 to 6.00 | C[Si](C)(O)c1csc2ccc(C(=O)N3CCC(c4cccc(CN)c4)CC3)cc12 [Target T149] | –
16 | 4.19 to 5.00 | Cn1cc(C(=O)N2CCC(c3cccc(CN)c3)CC2)c2ccc([Si](C)(C)O)cc21 [Target T152NMethyl] | –
17 | 4.19 to 5.00 | C[Si](C)(O)c1ccc2c(C(=O)N3CCC(c4cccc(CN)c4)CC3)c[nH]c2c1 [Target T152] | –
18 | – | CC[Si](CC)(O[Si](CC)(CC)c1ccccc1)c1ccccc1 [diphenyltetraethyldisiloxane] | more than ten fold longer

Row | SMILES | pIC50 [1] | half-life of hydrolysis relative to the depicted disiloxane [2]
19 | C[Si](C)(O)c1cccc2[nH]c(C(=O)N3CCC(c4cccc(CN)c4)CC3)cc12 [Target T32Silyl] | 4.19 to 5.00 | –
20 | C[Si](C)(O[Si](C)(C)c1cccc2sc(C(=O)N3CCC(c4cccc(CN)c4)CC3)cc12)c1cccc2sc(C(=O)N3CCC(c4cccc(CN)c4)CC3)cc12 [Target T46] | 6.00 to 10.00 | –
21 | C[Si](C)(O[Si](C)(C)c1cccc(CC(=O)N2CCC(c3cccc(CN)c3)CC2)c1)c1cccc(CC(=O)N2CCC(c3cccc(CN)c3)CC2)c1 [Target T47] | 6.00 to 10.00 | –
22 | C[Si](C)(/C=C/c1cccc(CC(=O)N2CCC(c3cccc(CN)c3)CC2)c1)O[Si](C)(C)/C=C/c1cccc(CC(=O)N2CCC(c3cccc(CN)c3)CC2)c1 [Target T47vinyl] | 5.00 to 6.00 | –
23 | C[Si](C)(O[Si](C)(C)c1ccc(CC(=O)N2CCC(c3cccc(CN)c3)CC2)cc1)c1ccc(CC(=O)N2CCC(c3cccc(CN)c3)CC2)cc1 [Target T48] | 5.00 to 6.00 | –
